The subject of the test is CD2F1 mice, L1210 leukemia sc, survival T/C. Briefly: NCI In Vivo Anticancer Drug Screen. Data for tumor model L1210 Leukemia (subcutaneous) in CD2F1 (CDF1) mice. The note with it: endpoint: median survival time, higher = longer survival. In outline:
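Read-out: survival or tumor size. Value = treated (T) / vehicle control (C). Transplantable tumor in mice.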

These results are taken from PubChem BioAssay AID258 (DTP/NCI, 2004).

Values joined by “and” are separate entries in the source; they are usually repeats but may differ in a detail not shown here. Equal values may be shown once. Toxic doses and inconclusive results are not listed.

On to `O=NN(CCCl)C(=O)NC1CCCCC1`, for which the T/C is 98 % of control (dose: 0.5 mg/kg/injection, schedule: Q01DX009 (ip), vehicle: saline + alcohol); 101 % of control and 106 % of control (dose: 0.5 mg/kg/injection, schedule: Q01DX009 (sc), vehicle: saline + alcohol); 101 % of control (dose: 1.0 mg/kg/injection, schedule: Q01DX009 (ip), vehicle: saline + alcohol); 105 % of control and 114 % of control (dose: 1.0 mg/kg/injection, schedule: Q01DX009 (sc), vehicle: saline + alcohol); 119 % of control (dose: 2.0 mg/kg/injection, schedule: Q01DX009 (sc), vehicle: saline + alcohol); 105 % of control and 112 % of control (dose: 3.0 mg/kg/injection, schedule: Q01DX Z (iv), vehicle: carboxymethylcellulose (CMC)). Further, the T/C runs as follows: (dose: 3.0 mg/kg/injection, schedule: Q01DX Z (oral), vehicle: carboxymethylcellulose (CMC)) 162 % of control; (dose: 3.0 mg/kg/injection, schedule: Q01DX Z (sc), vehicle: carboxymethylcellulose (CMC)) 118 % of control; (dose: 4.0 mg/kg/injection, schedule: Q01DX009 (ip), vehicle: saline + alcohol) 178 % of control and 186 % of control; (dose: 5.0 mg/kg/injection, schedule: Q01DX Z (ip), vehicle: carboxymethylcellulose (CMC)) 177 % of control and 181 % of control; (dose: 5.0 mg/kg/injection, schedule: Q01DX Z (iv), vehicle: carboxymethylcellulose (CMC)) 294 % of control; (dose: 5.0 mg/kg/injection, schedule: Q01DX Z (oral), vehicle: carboxymethylcellulose (CMC)) 493 % of control. The T/C reads like this: (dose: 5.0 mg/kg/injection, schedule: Q01DX Z (sc), vehicle: carboxymethylcellulose (CMC)) 112 % of control and 155 % of control and 287 % of control; (dose: 5.36 mg/kg/injection, schedule: Q01DX009 (sc), vehicle: saline + alcohol) 323 % of control; (dose: 8.0 mg/kg/injection, schedule: Q01DX009 (ip), vehicle: saline + alcohol) 234 % of control and 261 % of control; (dose: 8.4 mg/kg/injection, schedule: Q01DX Z (ip), vehicle: carboxymethylcellulose (CMC)) 381 % of control and 383 % of control; (dose: 8.4 mg/kg/injection, schedule: Q01DX Z (iv), vehicle: carboxymethylcellulose (CMC)) 225 % of control and 261 % of control; (dose: 8.4 mg/kg/injection, schedule: Q01DX Z (oral), vehicle: carboxymethylcellulose (CMC)) 412 % of control. The T/C reads like this: (dose: 8.4 mg/kg/injection, schedule: Q01DX Z (sc), vehicle: carboxymethylcellulose (CMC)) 106 % of control and 237 % of control and 300 % of control; (dose: 10.7 mg/kg/injection, schedule: Q01DX009 (ip), vehicle: saline + alcohol) 337 % of control; (dose: 10.7 mg/kg/injection, schedule: Q01DX009 (sc), vehicle: saline + alcohol) 378 % of control; (dose: 12.0 mg/kg/injection, schedule: Q01DX009 (sc), vehicle: saline + alcohol) 325 % of control; (dose: 14.0 mg/kg/injection, schedule: Q01DX Z (ip), vehicle: carboxymethylcellulose (CMC)) 255 % of control and 387 % of control; (dose: 14.0 mg/kg/injection, schedule: Q01DX Z (iv), vehicle: carboxymethylcellulose (CMC)) 183 % of control and 381 % of control. For the same compound, the T/C (dose: 14.0 mg/kg/injection, schedule: Q01DX Z (oral), vehicle: carboxymethylcellulose (CMC)) is 255 % of control and 300 % of control; the T/C (dose: 14.0 mg/kg/injection, schedule: Q07DX Z (sc), vehicle: carboxymethylcellulose (CMC)) is 112 % of control; the T/C (dose: 15.0 mg/kg/injection, schedule: Q01DX009 (ip), vehicle: Klucel (hydroxypropylcellulose) (HPC)) was 220 % of control; the T/C (dose: 16.0 mg/kg/injection, schedule: Q01DX009 (ip), vehicle: saline + alcohol) is 306 % of control and 340 % of control; the T/C (dose: 16.0 mg/kg/injection, schedule: Q01DX009 (sc), vehicle: saline + alcohol) is 271 % of control and 284 % of control and 348 % of control; the T/C (dose: 23.0 mg/kg/injection, schedule: Q01DX Z (ip), vehicle: carboxymethylcellulose (CMC)) was 177 % of control and 268 % of control. In addition, the T/C was 155 % of control and 368 % of control (dose: 23.0 mg/kg/injection, schedule: Q01DX Z (iv), vehicle: carboxymethylcellulose (CMC)); 212 % of control and 222 % of control (dose: 23.0 mg/kg/injection, schedule: Q01DX Z (oral), vehicle: carboxymethylcellulose (CMC)); 156 % of control and 211 % of control and 268 % of control (dose: 23.0 mg/kg/injection, schedule: Q01DX Z (sc), vehicle: carboxymethylcellulose (CMC)); 118 % of control (dose: 23.0 mg/kg/injection, schedule: Q07DX Z (sc), vehicle: carboxymethylcellulose (CMC)); 184 % of control (dose: 24.0 mg/kg/injection, schedule: Q01DX009 (ip), vehicle: saline + alcohol); 219 % of control (dose: 24.0 mg/kg/injection, schedule: Q01DX009 (sc), vehicle: saline + alcohol). The T/C is, setting by setting: (dose: 30.0 mg/kg/injection, schedule: Q01DX009 (ip), vehicle: Klucel (hydroxypropylcellulose) (HPC)) 275 % of control; (dose: 32.0 mg/kg/injection, schedule: Q01DX009 (sc), vehicle: saline + alcohol) 173 % of control; (dose: 39.0 mg/kg/injection, schedule: Q01DX Z (oral), vehicle: carboxymethylcellulose (CMC)) 161 % of control; (dose: 39.0 mg/kg/injection, schedule: Q01DX Z (sc), vehicle: carboxymethylcellulose (CMC)) 312 % of control; (dose: 64.0 mg/kg/injection, schedule: Q01DX009 (ip), vehicle: saline + alcohol) 95 % of control; (dose: 64.0 mg/kg/injection, schedule: Q01DX009 (sc), vehicle: saline + alcohol) 107 % of control and 120 % of control. For the same compound, the T/C was 200 % of control (dose: 65.0 mg/kg/injection, schedule: Q01DX001 (sc), vehicle: carboxymethylcellulose (CMC)); 237 % of control (dose: 65.0 mg/kg/injection, schedule: Q01DX Z (sc), vehicle: carboxymethylcellulose (CMC)); 475 % of control (dose: 65.0 mg/kg/injection, schedule: Q07DX Z (sc), vehicle: carboxymethylcellulose (CMC)); 193 % of control (dose: 108.0 mg/kg/injection, schedule: Q01DX001 (sc), vehicle: carboxymethylcellulose (CMC)); 122 % of control (dose: 108.0 mg/kg/injection, schedule: Q01DX Z (oral), vehicle: carboxymethylcellulose (CMC)); 250 % of control (dose: 108.0 mg/kg/injection, schedule: Q07DX Z (sc), vehicle: carboxymethylcellulose (CMC)). For the same compound, the T/C reads like this: (dose: 180.0 mg/kg/injection, schedule: Q01DX001 (sc), vehicle: carboxymethylcellulose (CMC)) 362 % of control; (dose: 180.0 mg/kg/injection, schedule: Q01DX Z (oral), vehicle: carboxymethylcellulose (CMC)) 116 % of control; (dose: 180.0 mg/kg/injection, schedule: Q07DX Z (sc), vehicle: carboxymethylcellulose (CMC)) 193 % of control; (dose: 300.0 mg/kg/injection, schedule: Q01DX001 (sc), vehicle: carboxymethylcellulose (CMC)) 243 % of control.
Turning to `Nc1nncs1`, the T/C reads like this: (dose: 39.0 mg/kg/injection, schedule: Q02DX005 (sc), vehicle: water) 100 % of control and 103 % of control; (dose: 65.0 mg/kg/injection, schedule: Q02DX005 (sc), vehicle: water) 100 % of control and 102 % of control; (dose: 108.0 mg/kg/injection, schedule: Q02DX005 (sc), vehicle: water) 100 % of control and 106 % of control; (dose: 180.0 mg/kg/injection, schedule: Q02DX005 (sc), vehicle: water) 122 % of control; (dose: 300.0 mg/kg/injection, schedule: Q02DX005 (sc), vehicle: water) 166 % of control and 180 % of control; (dose: 300.0 mg/kg/injection, schedule: Q04DX003 (sc), vehicle: saline) 100 % of control and 104 % of control. Moreover, the T/C is 172 % of control and 180 % of control (dose: 500.0 mg/kg/injection, schedule: Q02DX005 (sc), vehicle: water); 105 % of control and 112 % of control (dose: 500.0 mg/kg/injection, schedule: Q04DX003 (sc), vehicle: saline); 116 % of control and 124 % of control (dose: 833.0 mg/kg/injection, schedule: Q04DX003 (sc), vehicle: saline); 154 % of control (dose: 1388.0 mg/kg/injection, schedule: Q04DX003 (sc), vehicle: saline).
Take `CO[C@@]12[C@H](COC(N)=O)C3=C(C(=O)C(C)=C(N)C3=O)N1C[C@@H]1N[C@@H]12`: the T/C was 100 % of control (dose: 0.7 mg/kg/injection, schedule: Q01DX Z (sc), vehicle: saline); 100 % of control (dose: 1.17 mg/kg/injection, schedule: Q01DX Z (sc), vehicle: saline); 100 % of control (dose: 1.95 mg/kg/injection, schedule: Q01DX Z (sc), vehicle: saline); 108 % of control (dose: 3.25 mg/kg/injection, schedule: Q01DX Z (sc), vehicle: saline); 116 % of control (dose: 9.03 mg/kg/injection, schedule: Q01DX Z (sc), vehicle: saline).
`O=C1c2c(O)ccc(O)c2C(=O)c2c(NCCNCCO)ccc(NCCNCCO)c21`: the T/C by setting is: (dose: 0.5 mg/kg/injection, schedule: Q01DX009 (ip), vehicle: saline with Tween-80) 105 % of control and 114 % of control and 116 % of control; (dose: 1.0 mg/kg/injection, schedule: Q01DX009 (ip), vehicle: saline with Tween-80) 114 % of control; (dose: 2.0 mg/kg/injection, schedule: Q01DX009 (ip), vehicle: saline with Tween-80) 168 % of control.
For `Nc1nc2n[nH]nc2c(=O)[nH]1`, the T/C is 122 % of control (dose: 50.0 mg/kg/injection, schedule: Q01DX009 (sc), vehicle: saline) and 114 % of control (dose: 75.0 mg/kg/injection, schedule: Q01DX009 (sc), vehicle: saline).
